System in one data set: not listed separately
Description: logP determination by HPLC (EEC Directive 79/831 Annex V. A8). In kind it is physicochemical. Conditions: HPLC gradient method, acetonitrile/0.1% aqueous phosphoric acid. The method, then:
The logP values are determined in accordance with EEC Directive 79/831 Annex V. A8 by HPLC (gradient method, acetonitrile/0.1% aqueous phosphoric acid).
As for `COC(=O)C(=NOCF)c1ccccc1OC1CCCCO1` (stereo not drawn) [Example (VI-1), methyl 2-fluoromethoxyimino-2-[2-(tetrahydropyran-2-yloxy)-phenyl]-acetate], the chromatographic logP – broadly, a lipophilicity value derived from retention on a column – turned out to be 2.8.
Still for that read-out and setting: for `COC(=O)C(=NOCF)c1ccccc1O` [Example (II-1), methyl 2-fluoromethoxyimino-2-(2-hydroxyphenyl)-acetate] the value was 1.6.
Still for that read-out and setting: the figure for `CNC(=O)C(=NOCF)c1ccccc1O` [Example (II-2), 2-fluoromethoxyimino-2-(2-hydroxyphenyl)-N-methylacetamide] is 1.1.

The subject of a further data set is Plasmopara viticola. Put plainly: Plasmopara test (grapevine)/protective. In kind it is in vivo. To be noted: Plasmopara viticola, 144 h, protective, application rate 100 g/ha, evaluation 6 days after inoculation, read-out: Efficacy in %. The method, then:
Plasmopara Test (Grapevine)/Protective
(§1) Solvent: 47 parts by weight of acetone
(§2) Emulsifier: 3 parts by weight of alkylaryl polyglycol ether
(§3) To produce a suitable preparation of active compound, 1 part by weight of active compound is mixed with the stated amounts of solvent and emulsifier, and the concentrate is diluted with water to the desired concentration.
To test for protective activity, young plants are sprayed with the preparation of active compound at the stated application rate. After the spray coating has dried on, the plants are inoculated with an aqueous spore suspension of Plasmopara viticola and then remain in an incubation cabin at approximately 20° C. and 100% relative atmospheric humidity for 1 day. The plants are subsequently placed in a greenhouse at approximately 21° C. and approximately 90% relative atmospheric humidity for 5 days. The plants are then moistened and placed in an incubation cabin for 1 day.
Evaluation is carried out 6 days after the inoculation. 0% means an efficacy which corresponds to that of the control, whereas an efficacy of 100% means that no infection is observed.
On to `CNC(=O)/C(=N\OCF)c1ccccc1Oc1nc(-c2cccc(OC(F)F)c2)ns1` [drawing 65], for which the pest or weed control at 100 g/ha worked out at 99%.
Consider `CNC(=O)C(NOCF)c1ccccc1Oc1ncnc(Oc2ccccc2)c1F` (stereo not drawn) [drawing 57], for which the pest or weed control at 100 g/ha turned out to be 100%.
`CNC(=O)/C(=N\OCF)c1ccccc1Oc1ncnc(Oc2ccccc2Cl)c1F` [drawing 64]: the pest or weed control at 100 g/ha was 100%.
On the same count and under the same terms, for `CNC(=O)C(NOCF)c1ccccc1Oc1ncnc(Oc2ccccc2[N+](=O)[O-])c1F` (stereo not drawn) [drawing 58] the value was 96%.

Staying with this data set, now noted: protective, application rate 100 g/ha, evaluation 6 days after inoculation.
The compound `CNC(=O)/C(=N\OCF)c1ccccc1Oc1ncnc(Oc2cccc(C)c2C)c1F` [drawing 59] had an Efficacy in % of 100%.
`CNC(=O)/C(=N\OCF)c1ccccc1Oc1ncnc(Oc2cccc(Cl)c2C)c1F` [drawing 53] registered an Efficacy in % of 100%.
Still for that read-out and setting: for `CNC(=O)/C(=N\OCF)c1ccccc1Oc1ncnc(Oc2cccc(C)c2Cl)c1F` [drawing 67] the value was 100%; for `CNC(=O)/C(=N\OCF)c1ccccc1Oc1nc(-c2ccc(C(F)(F)F)cc2)ns1` [drawing 61], 100%; for `CNC(=O)/C(=N\OCF)c1ccccc1Oc1nc(-c2cccc(OC(F)(F)F)c2)ns1` [drawing 54], 100%.
With `CNC(=O)/C(=N\OCF)c1ccccc1Oc1ncnc(Oc2ccccc2C)c1F` [drawing 52], the Efficacy in % was found to be 100%.
Still for that read-out and setting: the figure for `CNC(=O)/C(=N\OCF)c1ccccc1Oc1nc(-c2ccc(OC(F)(F)F)cc2)ns1` [drawing 63] is 100%.
On the same count and under the same terms, the figure for `CNC(=O)/C(=N\OCF)c1ccccc1Oc1nc(-c2ccc(OC(F)F)cc2)ns1` [drawing 66] is 100%; for `CNC(=O)C(=NOCF)c1ccccc1Oc1nc(-c2ccccc2)ns1` [drawing 55] it is 100%; for `CNC(=O)/C(=N\OCF)c1ccccc1Oc1nc(-c2cccc(C(F)(F)F)c2)ns1` [drawing 62] it is 100%.
The same measure, in the same setting: for `CNC(=O)/C(=N\OCF)c1ccccc1Oc1ncnc(Oc2ccccc2OC(F)F)c1F` [drawing 56] the value was 96%.
As to `CNC(=O)C(=NOCF)c1ccccc1Oc1ncnc(Oc2ccccc2Cl)c1F` [drawing 51], the Efficacy in % was found to be 100%.
`COC(=O)C(=NOCF)c1ccccc1Oc1ncnc(Oc2ccccc2Cl)c1F` [drawing 50]: the Efficacy in % is recorded as 98%.
Still for that read-out and setting: the figure for `CNC(=O)/C(=N\OCF)c1ccccc1Oc1ncnc(Oc2ccccc2C#N)c1F` [drawing 60] is 96%.

For another data set, the system named is Venturia inaequalis. Description: Venturia test (apple)/protective. In kind it is in vivo. Conditions: Venturia inaequalis, 288 h, protective, application rate 10 g/ha, evaluation 12 days after inoculation, read-out: Efficacy in %. The method, then:
Venturia Test (Apple)/Protective
as §1, §2, §3
To test for protective activity, young plants are sprayed with the preparation of active compound at the stated application rate. After the spray coating has dried on, the plants are inoculated with an aqueous conidia suspension of the causative organism of apple scab Venturia inaequalis and then remain in an incubation cabin at approximately 20° C. and 100% relative atmospheric humidity for 1 day.
The plants are then placed in a greenhouse at approximately 21° C. and a relative atmospheric humidity of approximately 90%.
Evaluation is carried out 12 days after the inoculation. 0% means an efficacy which corresponds to that of the control, whereas an efficacy of 100% means that no infection is observed.
Consider `CNC(=O)C(NOCF)c1ccccc1Oc1ncnc(Oc2cccc(Cl)c2Cl)c1F` (stereo not drawn) [drawing 71], for which the pest or weed control at 10 g/ha was 96%.
Still for that read-out and setting: the figure for `CNC(=O)/C(=N\OCF)c1ccccc1Oc1ncnc(Oc2ccccc2Cl)c1F` [drawing 81] is 100%.
Same read-out and setting: the figure for `CNC(=O)C(NOCF)c1ccccc1Oc1ncnc(Oc2ccccc2)c1F` (stereo not drawn) [drawing 73] is 96%.
The same measure, in the same setting: the figure for `CNC(=O)/C(=N\OCF)c1ccccc1Oc1nc(-c2cccc(OC(F)F)c2)ns1` [drawing 82] is 100%.

Still in this data set, the particulars now being: Venturia inaequalis, 288 h, protective, application rate 19 g/ha, evaluation 12 days after inoculation, read-out: Efficacy in %.
Take `CNC(=O)/C(=N\OCF)c1ccccc1Oc1nc(-c2ccc(C(F)(F)F)cc2)ns1` [drawing 78]: the pest or weed control at 19 g/ha amounted to 100%.

Staying with this data set, now noted: protective, application rate 10 g/ha, evaluation 12 days after inoculation.
The compound `CNC(=O)/C(=N\OCF)c1ccccc1Oc1nc(-c2cccc(C(F)(F)F)c2)ns1` [drawing 79] displayed an Efficacy in % of 100%.
Still for that read-out and setting: the figure for `CNC(=O)/C(=N\OCF)c1ccccc1Oc1ncnc(Oc2cccc(C)c2C)c1F` [drawing 74] is 100%; for `CNC(=O)/C(=N\OCF)c1ccccc1Oc1nc(-c2ccc(OC(F)F)cc2)ns1` [drawing 83] it is 99%; for `CNC(=O)/C(=N\OCF)c1ccccc1Oc1ncnc(Oc2ccccc2OC(F)F)c1F` [drawing 72] it is 95%.
The same measure, in the same setting: the figure for `CNC(=O)/C(=N\OCF)c1ccccc1Oc1nc(-c2cccc(OC(F)(F)F)c2)ns1` [drawing 77] is 100%; for `CNC(=O)C(=NOCF)c1ccccc1Oc1ncnc(Oc2ccccc2Cl)c1F` [drawing 69] it is 99%; for `CNC(=O)C(=NOCF)c1ccccc1Oc1nc(-c2ccccc2)ns1` [drawing 70] it is 100%.
Consider `COC(=O)C(=NOCF)c1ccccc1Oc1ncnc(Oc2ccccc2Cl)c1F` [drawing 68], for which the Efficacy in % is listed as 100%.
The same measure, in the same setting: the figure for `CNC(=O)/C(=N\OCF)c1ccccc1Oc1ncnc(Oc2ccccc2C)c1F` [drawing 75] is 100%; for `CNC(=O)/C(=N\OCF)c1ccccc1Oc1nc(-c2ccc(OC(F)(F)F)cc2)ns1` [drawing 80] it is 100%.
`CNC(=O)/C(=N\OCF)c1ccccc1Oc1ncnc(Oc2cccc(Cl)c2C)c1F` [drawing 76] returned an Efficacy in % of 98%.

The test system of the next data set is Puccinia recondita. Description: Puccinia test (wheat)/protective. The data set is classed as in vivo. To be noted: Puccinia recondita, 240 h, protective, application rate 250 g/ha, evaluation 10 days after inoculation, read-out: Efficacy in %. The procedure: Puccinia Test (Wheat)/Protective
Solvent: 25 parts by weight of N,N-dimethylacetamide
Emulsifier: 0.6 part by weight of alkylaryl polyglycol ether
as §3
To test for protective activity, young plants are sprayed with the preparation of active compound at the stated application rate. After the spray coating has dried on, the plants are sprayed with a conidia suspension of Puccinia recondita. The plants remain in an incubation cabin at 20° C. and 100% relative atmospheric humidity for 48 hours.
The plants are then placed in a greenhouse at a temperature of approximately 20° C. and a relative atmospheric humidity of 80% to promote the development of rust pustules.
Evaluation is carried out 10 days after the inoculation. 0% means an efficacy which corresponds to that of the control, whereas an efficacy of 100% means that no infection is observed.
With `CNC(=O)C(NOCF)c1ccccc1Oc1ncnc(Oc2ccccc2)c1F` (stereo not drawn) [drawing 88], the pest or weed control at 250 g/ha came out at 100%.
As for `CNC(=O)C(NOCF)c1ccccc1Oc1ncnc(Oc2ccccc2[N+](=O)[O-])c1F` (stereo not drawn) [drawing 89], the pest or weed control at 250 g/ha was found to be 100%.
On the same count and under the same terms, the figure for `CNC(=O)C(NOCF)c1ccccc1Oc1ncnc(Oc2cccc(Cl)c2Cl)c1F` (stereo not drawn) [drawing 86] is 100%.
As to `CNC(=O)/C(=N\OCF)c1ccccc1Oc1ncnc(Oc2ccccc2Cl)c1F` [drawing 96], the pest or weed control at 250 g/ha amounted to 100%.

Staying with this data set, now noted: protective, application rate 250 g/ha, evaluation 10 days after inoculation.
`CNC(=O)/C(=N\OCF)c1ccccc1Oc1ncnc(Oc2cccc(C)c2C)c1F` [drawing 90] registered an Efficacy in % of 100%.
On the same count and under the same terms, the figure for `CNC(=O)/C(=N\OCF)c1ccccc1Oc1ncnc(Oc2ccccc2C)c1F` [drawing 92] is 100%.
Same read-out and setting: the figure for `CNC(=O)/C(=N\OCF)c1ccccc1Oc1ncnc(Oc2ccccc2C#N)c1F` [drawing 91] is 100%.
On the same count and under the same terms, for `CNC(=O)/C(=N\OCF)c1ccccc1Oc1nc(-c2cccc(C(F)(F)F)c2)ns1` [drawing 94] the value was 100%; for `CNC(=O)/C(=N\OCF)c1ccccc1Oc1nc(-c2ccc(OC(F)F)cc2)ns1` [drawing 97], 100%.
The compound `CNC(=O)/C(=N\OCF)c1ccccc1Oc1nc(-c2ccc(OC(F)(F)F)cc2)ns1` [drawing 95] gave an Efficacy in % of 100%.
Same read-out and setting: the figure for `CNC(=O)C(=NOCF)c1ccccc1Oc1ncnc(Oc2ccccc2Cl)c1F` [drawing 85] is 100%.
On the same count and under the same terms, for `CNC(=O)/C(=N\OCF)c1ccccc1Oc1ncnc(Oc2ccccc2OC(F)F)c1F` [drawing 87] the value was 100%.
On the same count and under the same terms, the figure for `CNC(=O)/C(=N\OCF)c1ccccc1Oc1nc(-c2ccc(C(F)(F)F)cc2)ns1` [drawing 93] is 100%; for `COC(=O)C(=NOCF)c1ccccc1Oc1ncnc(Oc2ccccc2Cl)c1F` [drawing 84] it is 80%.

For the origin of these results see patent US6632817B2, “Fluoromethoximino compounds” (priority 1997, dated 2003).
